These results are taken from US20240254087A1, “SELECTIVE, PARTIAL, AND ARRESTIN-BIASED 5-HT2A AGONISTS WITH UTILITY IN VARIOUS DISORDERS” (Saint Joseph's University, priority 2021, published 2024).

The target of test [1] is T1, 5-HT2A (Homo sapiens, UniProt P28223). The experiment in a line: cell-based. Set-up: expressed in transfected cells; host or cells: HEK293T, transient. As to conditions: for Emax: read-out: 5-HT2A β-arrestin Emax (% 5-HT), BRET, mean ± SEM.
Test [2] deals with T1, 5-HT2A. Description: cell-based. Set-up: expressed in transfected cells; host or cells: HEK293T, transient. As to conditions: read-out: 5-HT2A Gq Emax (% 5-HT), BRET, mean ± SEM.
The next test has as its target 5-HT2B (Homo sapiens, UniProt P41595). The experiment in a line: BRET Gq dissociation, 5-HT2B. In kind it is cell-based. Also noted: expressed in transfected cells; host or cells: HEK293T, transient. As to conditions: for Emax: read-out: 5-HT2B Gq Dissociation (BRET) EMAX ± SEM (%5-HT).
The target in a further test is 5-HT6 (Homo sapiens, UniProt P50406). Description: Competitive radioligand binding (NIMH PDSP).
Chain of 5-HT6 (P50406 whole entry, species assumed): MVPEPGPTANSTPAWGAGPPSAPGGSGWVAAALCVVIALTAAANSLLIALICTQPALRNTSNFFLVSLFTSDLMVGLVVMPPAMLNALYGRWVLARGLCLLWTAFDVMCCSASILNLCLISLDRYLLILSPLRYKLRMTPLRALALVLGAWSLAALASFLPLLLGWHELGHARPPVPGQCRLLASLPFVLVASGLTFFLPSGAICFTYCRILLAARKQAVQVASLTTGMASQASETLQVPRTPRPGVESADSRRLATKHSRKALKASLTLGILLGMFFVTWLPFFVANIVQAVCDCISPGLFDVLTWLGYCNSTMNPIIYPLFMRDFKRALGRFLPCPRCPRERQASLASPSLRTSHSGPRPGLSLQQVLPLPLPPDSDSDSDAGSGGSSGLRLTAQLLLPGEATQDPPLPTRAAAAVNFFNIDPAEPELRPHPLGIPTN
The target in the next test is 5-HT7 (Homo sapiens, UniProt P34969). The experiment in a line: Competitive radioligand binding (NIMH PDSP).
Chain of 5-HT7 (P34969 whole entry, species assumed): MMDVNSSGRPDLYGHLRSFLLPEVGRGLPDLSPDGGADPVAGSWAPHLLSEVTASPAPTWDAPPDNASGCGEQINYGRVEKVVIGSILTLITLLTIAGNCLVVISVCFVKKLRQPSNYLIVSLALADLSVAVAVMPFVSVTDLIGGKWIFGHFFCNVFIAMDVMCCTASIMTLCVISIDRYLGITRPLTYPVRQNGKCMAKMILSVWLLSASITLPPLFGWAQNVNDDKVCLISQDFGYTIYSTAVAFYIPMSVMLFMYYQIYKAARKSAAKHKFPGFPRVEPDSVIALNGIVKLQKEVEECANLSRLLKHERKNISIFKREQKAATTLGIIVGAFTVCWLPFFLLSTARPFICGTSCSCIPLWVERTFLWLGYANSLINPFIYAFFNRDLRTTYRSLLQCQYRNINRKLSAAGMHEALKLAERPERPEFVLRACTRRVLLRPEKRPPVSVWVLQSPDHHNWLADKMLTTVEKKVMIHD
The target in another test is 5-HT5a (Homo sapiens, UniProt P47898). Description: Competitive radioligand binding (NIMH PDSP).
Chain of 5-HT5a (P47898 whole entry, species assumed): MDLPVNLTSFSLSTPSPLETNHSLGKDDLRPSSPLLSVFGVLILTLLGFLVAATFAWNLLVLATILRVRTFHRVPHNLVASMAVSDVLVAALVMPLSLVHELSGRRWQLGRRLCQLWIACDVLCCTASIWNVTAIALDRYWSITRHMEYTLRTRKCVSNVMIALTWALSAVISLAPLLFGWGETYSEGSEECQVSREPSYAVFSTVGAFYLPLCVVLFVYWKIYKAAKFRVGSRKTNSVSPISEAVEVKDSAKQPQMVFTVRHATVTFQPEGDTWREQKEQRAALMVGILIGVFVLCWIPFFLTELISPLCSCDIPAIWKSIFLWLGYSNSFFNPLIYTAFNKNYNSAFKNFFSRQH
For a further test, the system named is male C57BL/6J mice. Description: Head-twitch response (HTR) in mice. Conditions: for ED50: Mus musculus. In kind it is in vivo, mouse. A digest of the protocol:
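Head twitches in male C57BL/6J mice (6-8 weeks) carrying head-mounted magnets were detected with a magnetometer coil around a 12-cm glass cylinder during the dark phase. Coil signal was low-pass filtered at 2 kHz and digitized at 20 kHz. Counts were analyzed by one-way ANOVA with Dunnett's post hoc test.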

The mark [3] stands for this setting: read-out: HTR ED50 mg/kg (95% CI), SC, except DOI and 25D-NBOMe IP.
[4] abbreviates: read-out: HTR ED50 μmol/kg (95% CI), SC, except DOI and 25D-NBOMe IP.
Where [5] appears, read: SC, except DOI and 25D-NBOMe IP.

Entries after “also recorded” stand apart in the source; their conditions may differ. Read-outs that look alike come from different tables or passages of the source. Some results are limits rather than exact numbers.

T1 sequence (P28223 whole entry): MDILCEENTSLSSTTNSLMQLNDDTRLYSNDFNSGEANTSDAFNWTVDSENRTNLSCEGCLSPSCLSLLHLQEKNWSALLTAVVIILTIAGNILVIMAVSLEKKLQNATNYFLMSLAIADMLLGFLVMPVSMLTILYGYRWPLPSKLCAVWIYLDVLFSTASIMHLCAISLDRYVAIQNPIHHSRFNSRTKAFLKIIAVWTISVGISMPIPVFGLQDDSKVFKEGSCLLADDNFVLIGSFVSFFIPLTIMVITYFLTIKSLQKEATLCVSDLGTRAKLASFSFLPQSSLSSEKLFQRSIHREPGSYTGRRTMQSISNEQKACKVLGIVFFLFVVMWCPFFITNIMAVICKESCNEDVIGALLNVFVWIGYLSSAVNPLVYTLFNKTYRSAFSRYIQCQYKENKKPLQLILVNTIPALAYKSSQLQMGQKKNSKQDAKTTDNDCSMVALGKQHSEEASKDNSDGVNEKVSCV
Chain of 5-HT2B (P41595 whole entry): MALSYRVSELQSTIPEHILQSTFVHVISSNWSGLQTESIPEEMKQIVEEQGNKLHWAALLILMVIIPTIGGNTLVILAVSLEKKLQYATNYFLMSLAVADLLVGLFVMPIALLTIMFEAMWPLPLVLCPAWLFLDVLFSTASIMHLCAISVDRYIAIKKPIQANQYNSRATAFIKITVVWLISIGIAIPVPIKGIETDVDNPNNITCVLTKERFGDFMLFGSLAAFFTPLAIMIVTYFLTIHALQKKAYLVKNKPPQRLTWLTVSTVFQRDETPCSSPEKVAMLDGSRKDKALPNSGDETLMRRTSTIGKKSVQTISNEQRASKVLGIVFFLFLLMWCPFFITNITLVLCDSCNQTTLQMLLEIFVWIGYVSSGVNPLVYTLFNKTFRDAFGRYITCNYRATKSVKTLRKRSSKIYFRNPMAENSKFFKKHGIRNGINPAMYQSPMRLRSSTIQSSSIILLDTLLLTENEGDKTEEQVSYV

Regarding `COc1cc([N+](=O)[O-])c(OC)cc1CCN` [2C-N (1), 2-(2,5-dimethoxy-4-nitrophenyl)ethan-1-amine, reference compound], the Emax at 5-HT2A [1] worked out at 83.8 ± 2.5%; at 5-HT2A [2] it was 87.9 ± 1.4%; on 5-HT2B, 87.7 ± 2.8%. At 5-HT2B, this molecule had a half-maximal effective concentration (EC50) of 74.1 nM. In addition, the inhibitory constant (Ki) is 251 nM on 5-HT6, greater than 10 µM at 5-HT7 and greater than 10 µM at 5-HT5a.
Regarding `COc1cc([N+](=O)[O-])c(OC)cc1CCNCc1cccc2ccccc12` [25N-N-1-Nap (16), [2-(2,5-dimethoxy-4-nitrophenyl)ethyl][(naphthalen-1-yl)methyl]amine], the Emax came to 78.2 ± 1.8% on 5-HT2A [1] and 23.7 ± 1.4% at 5-HT2A [2]. Also, at 5-HT2B, the “5-HT2B Gq Dissociation (BRET) EMAX ± SEM (%5-HT)” value is “No activity”. At 5-HT2B, the “5-HT2B Gq Dissociation (BRET) pEC50 ± SEM” value is “No activity”. In addition, the Ki at 5-HT6 is 79.4 nM; on 5-HT7, 0.186 µM; on 5-HT5a it was 1.1 µM. For the same molecule, the “Induction of the HTR in mice (in words)” value in the test on male C57BL/6J mice was “failed to induce the HTR”. Besides, in the test with male C57BL/6J mice, the “Max HTR response during a 30-min assessment (maximum counts ÷ baseline response)” value is listed as 1.2-fold increase. In the test with male C57BL/6J mice (setting [3]), the ED50 is greater than 30 mg/kg.
In the case of `COc1cc([N+](=O)[O-])c(OC)cc1CCNCc1ccccc1` [25N-NB (2), Benzyl[2-(2,5-dimethoxy-4-nitrophenyl)ethyl]amine], the maximal response (Emax) on 5-HT2A [1] was 115 ± 4.1%; on 5-HT2A [2], 79.5 ± 1.5%; at 5-HT2B, 32.6 ± 2.3%. Besides, the EC50 at 5-HT2B is 38 nM. For the same molecule, in the test on male C57BL/6J mice, the “Max HTR response during a 30-min assessment (maximum counts ÷ baseline response)” value is 9.1-fold increase. The values for the ED50 with male C57BL/6J mice (setting [4]) and in the test with male C57BL/6J mice (setting [3]) were 3.53 µmol/kg and 1.25 mg/kg, respectively.
With `COc1cc([N+](=O)[O-])c(OC)cc1CCNCc1cccc(F)c1OC` [25N-NB-2-MeO-3-F (19), [2-(2,5-dimethoxy-4-nitrophenyl)ethyl][(3-fluoro-2-methoxyphenyl)methyl]amine], the Emax was 120 ± 3.3% on 5-HT2A [1] and 71.1 ± 1.9% on 5-HT2A [2]. Further, the inhibitory constant (Ki) on 5-HT6 is greater than 10000 nM; on 5-HT7, greater than 10 µM; at 5-HT5a, 2.88 µM.
With `COc1cc([N+](=O)[O-])c(OC)cc1CCNCc1cccc(C)c1O` [25N-NB-2-OH-3-Me (18), 2-({[2-(2,5-dimethoxy-4-nitrophenyl)ethyl]amino}methyl)-6-methylphenol], the “Difference in Emax (β-arrestin vs Gq)” value at 5-HT2A [1] (BRET) was 81%. The “5-HT2A β-arrestin Emax (% 5-HT)” value at 5-HT2A [1] (BRET, mean ± SEM) amounted to 130.7 ± 4.0 % 5-HT. Besides, the Emax at 5-HT2A [1] turned out to be 131%; at 5-HT2A [2], 50.8 ± 1.6%. In addition, at 5-HT2B, the “5-HT2B Gq Dissociation (BRET) EMAX ± SEM (%5-HT)” value is on record as “No activity”. The “5-HT2B Gq Dissociation (BRET) pEC50 ± SEM” value on 5-HT2B is “No activity”. Moreover, the Ki was 209 nM on 5-HT6, 0.871 µM at 5-HT7 and 0.501 µM at 5-HT5a. The “Induction of the HTR in mice (in words)” value in the test with male C57BL/6J mice is “failed to induce the HTR; also recorded: do not induce the HTR”. Also, in the test on male C57BL/6J mice, the “Max HTR response during a 30-min assessment (maximum counts ÷ baseline response)” value was 1.0-fold increase. Moreover, the ED50 with male C57BL/6J mice (setting [3]) is greater than 10 mg/kg.
For `COc1cc([N+](=O)[O-])c(OC)cc1CCNCc1cccc(C)c1` [25N-NB-3-Me (22), [2-(2,5-dimethoxy-4-nitrophenyl)ethyl][(3-methylphenyl)methyl]amine], the Emax stood at 94.7 ± 4.2% on 5-HT2A [1] and 41.7 ± 3.4% at 5-HT2A [2].
In the case of `COc1cc([N+](=O)[O-])c(OC)cc1CCNCc1cccc(O)c1` [25N-NB-3-OH (21), 3-({[2-(2,5-dimethoxy-4-nitrophenyl)ethyl]amino}methyl)phenol], the maximal response (Emax) on 5-HT2A [1] amounted to 119 ± 5.2%; on 5-HT2A [2] it was 49.8 ± 4.3%. Besides, the inhibitory constant (Ki) is 69.2 nM at 5-HT6, greater than 10 µM at 5-HT7 and greater than 10 µM at 5-HT5a. The entries for the “Induction of the HTR in mice (in words)” value in the test on male C57BL/6J mice and in the test with male C57BL/6J mice (listed as 25N—NB-3-HO (21)) were “inactive in the HTR” and “do not induce the HTR”, respectively. Further, the “Max HTR response during a 30-min assessment (maximum counts ÷ baseline response)” value in the test with male C57BL/6J mice is 1.7-fold increase. Also, the ED50 in the test on male C57BL/6J mice (setting [3]) was greater than 30 mg/kg.
As to `COc1cc([N+](=O)[O-])c(OC)cc1CCNCc1ccccc1C(F)(F)F` [25N-NBCF3 (14), [2-(2,5-dimethoxy-4-nitrophenyl)ethyl]({[2-(trifluoromethyl)phenyl]methyl}) amine], the values for the inhibition constant Ki at 5-HT6, at 5-HT7 and at 5-HT5a were 407 nM, greater than 10 µM and greater than 10 µM, respectively. Also, the “Induction of the HTR in mice (in words)” value in the test with male C57BL/6J mice is listed as “lacked a HTR; also recorded: failed to induce a HTR; also recorded: do not induce the HTR”. Moreover, the “Max HTR response during a 30-min assessment (maximum counts ÷ baseline response)” value in the test on male C57BL/6J mice is 2.6-fold increase. The ED50 with male C57BL/6J mice (setting [3]) is greater than 30 mg/kg.
At 5-HT2B, `COc1cc([N+](=O)[O-])c(OC)cc1CCNCc1ccccc1I` [25N-NBI (10)] had an EC50 of 29.5 nM. Further, the Emax on 5-HT2B amounted to 21.8 ± 2.3%. In addition, the Ki was 380 nM at 5-HT6, greater than 10 µM on 5-HT7 and greater than 10 µM on 5-HT5a. Also, in the test with male C57BL/6J mice, the “Max HTR response during a 30-min assessment (maximum counts ÷ baseline response)” value is on record as 3.0-fold increase. Also, the ED50 in the test on male C57BL/6J mice (setting [4]) is 10.3 µmol/kg; in the test on male C57BL/6J mice (setting [3]), 4.94 mg/kg.
As to `COc1cc([N+](=O)[O-])c(OC)cc1CCNCc1ccccc1[N+](=O)[O-]` [25N-NBNO2 (15), [2-(2,5-dimethoxy-4-nitrophenyl)ethyl][(2-nitrophenyl)methyl]amine], on 5-HT2B, the “5-HT2B Gq Dissociation (BRET) EMAX ± SEM (%5-HT)” value is “No activity” and the “5-HT2B Gq Dissociation (BRET) pEC50 ± SEM” value is on record as “No activity”. The molecule also showed a Ki at 5-HT6 greater than 10000 nM. Besides, the Ki at 5-HT7 is greater than 10 µM. For the same molecule, at 5-HT5a, the inhibition constant (Ki) is greater than 10 µM. For the same molecule, in the test on male C57BL/6J mice, the “Induction of the HTR in mice (in words)” value is “lacked a HTR; also recorded: failed to induce a HTR; also recorded: do not induce the HTR” and the “Max HTR response during a 30-min assessment (maximum counts ÷ baseline response)” value is given as 1.9-fold increase. In addition, in the test on male C57BL/6J mice (setting [3]), the ED50 is greater than 100 mg/kg.
Regarding `COc1cc([N+](=O)[O-])c(OC)cc1CCNCc1ccccc1OC(F)(F)F` [25N-NBOCF3 (12)], on 5-HT6, the “5-HT6 pKi affinity (Ki ± SEM)” value came out at 6.12. Moreover, the “5-HT7 pKi affinity (Ki ± SEM)” value on 5-HT7 was less than 5. Also, the “5-HT5a pKi affinity (Ki ± SEM)” value at 5-HT5a came out at 5.80. For the same molecule, in the test with male C57BL/6J mice, the “Induction of the HTR in mice (in words)” value was “do not induce the HTR” and the “Max HTR response during a 30-min assessment (maximum counts ÷ baseline response)” value was 3.9-fold increase. Besides, in the test on male C57BL/6J mice (setting [5]), the “HTR ED50 μmol/kg (95% CI)” value is 13.5 (6.81-26.8) μmol/kg and the “HTR ED50 mg/kg (95% CI)” value is listed as 5.90 (2.97-11.7) mg/kg.
Regarding `COc1cc([N+](=O)[O-])c(OC)cc1CCNCc1ccccc1OC` [25N-NBOMe (4), [2-(2,5-dimethoxy-4-nitrophenyl)ethyl] [(2-methoxyphenyl)methyl]amine], the values for the Emax at 5-HT2A [1], at 5-HT2A [2] and at 5-HT2B were 136 ± 3.8%, 98% and 61.8 ± 2.3%, respectively. This molecule also showed a concentration giving a half-maximal response (EC50) on 5-HT2B of 3.89 nM. The Ki is 55 nM at 5-HT6, greater than 10 µM at 5-HT7 and greater than 10 µM at 5-HT5a. For the same molecule, the “Max HTR response during a 30-min assessment (maximum counts ÷ baseline response)” value with male C57BL/6J mice is given as 15.6-fold increase. Also, the ED50 in the test with male C57BL/6J mice (setting [4]) is 0.29 µmol/kg; with male C57BL/6J mice (setting [3]), 0.11 mg/kg.
For `COc1cc([N+](=O)[O-])c(OC)cc1CCNCc1ccccc1-c1ccccc1` [25N-NBPh (17), ({[1,1′-biphenyl]-2-yl}methyl)[2-(2,5-dimethoxy-4-nitrophenyl)ethyl]amine], the maximum response (Emax) is 109 ± 2.8% on 5-HT2A [1], 23.2 ± 1.5% on 5-HT2A [2] and 47 ± 5.5% at 5-HT2B. At 5-HT2B, this molecule showed a 50% effective concentration (EC50) of 316 nM. Moreover, in the test with male C57BL/6J mice, the “Induction of the HTR in mice (in words)” value is listed as “lacked a HTR”. The “Max HTR response during a 30-min assessment (maximum counts ÷ baseline response)” value with male C57BL/6J mice is on record as 2.1-fold increase. The ED50 in the test with male C57BL/6J mice (setting [3]) is greater than 100 mg/kg.
